Entries after “also recorded” stand apart in the source; their conditions may differ.
Tests used:
TMED9 = biological target: T1, TMED9 (Homo sapiens, UniProt Q9BVK6); test: TMED9 abundance (IF) in patient iPSC-derived kidney organoids; type: cell-based; conditions: 10 μM, 72 hours
T1 construct: TMED9 abundance in P cells at escalating temperatures (as indicated) with or without treatment with BRD-4780; endogenous in cells; host or cells: P cells (intact cells treated, then heated and lysed)
T1 sequence (Q9BVK6 38-235): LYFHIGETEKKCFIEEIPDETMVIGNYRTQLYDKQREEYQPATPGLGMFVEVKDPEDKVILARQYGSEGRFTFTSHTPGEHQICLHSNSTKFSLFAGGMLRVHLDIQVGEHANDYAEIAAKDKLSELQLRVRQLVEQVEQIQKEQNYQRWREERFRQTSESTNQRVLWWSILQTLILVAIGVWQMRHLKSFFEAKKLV
Method: Kidney organoids were immersion-fixed for 15 min in 4% PFA at 4° C. and subsequently frozen in OCT using dry ice and 100% ethanol. Six […] cryostat sections (CM1950, Leica) were thaw-mounted on microscope slides (Fisherbrand™ Superfrost™ Plus, Fisher Scientific) and kept in the cryostat (at −26° C.) for the duration of the sectioning process. Prior to immunostaining, organoid sections were rinsed in PBS for 5 min, incubated for 20 min at room temperature (RT) in PBS blocking solution containing 5% normal donkey serum (530-100ML, EMD Millipore) and 1.5% Tween® 20 (P1379, Sigma-Aldrich), then incubated overnight at 4° C. with primary antibodies diluted in the same blocking solution (1:500, monoclonal Armenian hamster anti-MUC1, Ab80952, Abcam; 1:500, monoclonal Fab-A-VSH anti-fsMUC1, AbD22655.4, Bio-Rad; 1:300 monoclonal Rat anti-E Cadherin [DECMA-1], ab11512, Abcam; 1:500 polyclonal Rabbit anti-Laminin, L9393-100UL, Sigma-Aldrich; 1:500 Na/K-ATPase, ab76020, Abcam; 1:300 Fluorescein labeled Lotus Tetragonolobus Lectin (LTL), FL-1321, Vector laboratories; 1:100, polyclonal, Rabbit anti-TMED9, 21620-1-AP, Proteintech). […]

[1] = test system: N cells expressing P23H mutant rhodopsin; test: Cell death (DRAQ7) in N cells expressing P23H mutant rhodopsin; type: cell-based, human; conditions: 5 μM, 72 hours
Method: To study apoptosis and cell death in N and P cells, 384 well Cell Carrier Ultra plates (6057308, Perkin Elmer), pre-coated with 0.25 mg/mL Synthemax II SC Substrate (3535, Corning) were used. For UPR branch activation experiments (FIGS. 2B, 9I, 9J and 9G) N and P cells were treated as described in the corresponding figure legends. CellEvent Caspase-3/7 Green Detection Reagent (C10423, Thermo Fisher Scientific®) and DRAQ7 (DR71000, Biostatus) were used at 1:5000 to monitor apoptosis and cell death respectively. Cells were imaged daily during 4 days to monitor viability and image analysis was performed as described below. For rescue experiments, P cells were plated on 96 well Cell Carrier Ultra microplates (6055302, Perkin Elmer) at 30,000 cells/well and cultured for 24 hr. […]
Caspase 3/7 activation and/or DRAQ7 staining were used to calculate the fraction of cells going through apoptosis and/or cell death, respectively. Single cells were first identified using the digital phase contrast channel and cell number was calculated. Fluorescence intensities were then measured and the threshold for Caspase 3/7 and DRAQ7 positive staining was determined. As an output, the fraction of live (neither caspase3/7 nor DRAQ7 signal detected), apoptotic (caspase3/7 positive) or dead cells (DRAQ7 positive) was calculated in each well at a particular time point.

Rhodopsin = test: BRD-4780 treatment in Rho-P23H/+ mice, rhodopsin staining of retinal sections; type: in vivo, mouse; conditions: 50 mg/Kg/day oral gavage, 28 days
Method: Rhodopsin intensity was calculated in retinal sections of Rho/+ mice treated with either vehicle or BRD-4780 (FIGS. 21A and 21B), as compared to wild-type mice treated with vehicle alone. In healthy retina, Rhodopsin primarily localized to the outer segment of the photoreceptors (OS, indicated by the arrow in FIG. 21A), instead of localizing around the photoreceptor nuclei in the outer nuclear layer (ONL, indicated by an asterisk in FIG. 21A). Since there is no Rhodopsin-P23H specific antibody, the amount of Rhodopsin staining in the outer nuclear layer was calculated as a measurement of Rhodopsin accumulation in intracellular compartments. The calculated Rhodopsin staining in the ONL was normalized to the nuclear staining, to correct for differences in cell number.
The effect of BRD-4780 on Rhodopsin accumulation in intracellular compartments of mouse retinae were tested in age-matched Rho-P23H/+ and +/+ male mice. […] Animal weight was observed daily to monitor toxicity. On day 28, mice were sacrificed, and eyes were removed for further analysis.

huntingtin (97 polyQ) = test: Huntingtin-GFP (97 polyQ) accumulation in HEK cells; type: cell-based, human; conditions: 10 μM, 72 hours
Method: HEK293T cells were transfected with Huntingtin 97Q repeats fused to GFP and selected in 0.8 mg/mL G418 (Thermo Fisher Scientific®).
For GFP-Huntingtin experiments (FIGS. 15G and 15H), GFP signal in each cell was calculated using the “spot” identification feature, and total spot intensity for single cells was calculated and averaged for each well.
HEK293T stably expressing huntingtin 97Q-GFP were treated with 10 μM of BRD-4780 or vehicle DMSO, then monitored for GFP intensity by live cell imaging.

[2] = Munk et al., 1996; cited from earlier work

Q: Which “TMED9 abundance in patient organoids” value (TMED9) does the source give for `CC(C)[C@@H]1[C@H]2CC[C@H](C2)[C@H]1N` (racemic) [BRD-4780, 2-endo-amino-3-exo-isopropylbicyclo[2.2.1]heptane] here?
A: reduced TMED9 to levels comparable to cells in N1 organoids

Q: What about the “viability of cells expressing P23H mutant” value [1] of the same compound?
A: significantly improved

Q: What about the “rhodopsin accumulation in intracellular compartments of retina” value (Rhodopsin) of the same compound?
A: significantly reduced rhodopsin accumulation in intracellular compartments

Q: And the “intracellular accumulation of GFP-tagged mutant huntingtin (97 polyQ)” value (huntingtin (97 polyQ))?
A: did not reverse or diminish the intracellular accumulation; also recorded: no effect on mutant huntingtin

Q: What about the “anti-hypertensive efficacy in animal studies” value [2] of the same compound?
A: lack of efficacy as an anti-hypertensive

Reference: patent publication US12023308B2, “Agents for reversing toxic proteinopathies” (THE BROAD INSTITUTE, INC., priority 2019, dated 2024)
